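48-hour exposure; five concentrations; linearly interpolated endpoints. TGI is the concentration that stops growth completely.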
Columns and labels:
Experiment in all cases: NCI-60 cell line screen, 48 h
[1] = system: TK-10 renal
[2] = system: SW-620 colon
[3] = system: EKVX NSCLC
[4] = system: SN12C renal
[5] = system: UACC-62 melanoma
[6] = system: DU-145 prostate
[7] = system: NCI/ADR-RES ovarian
[8] = system: LOX IMVI melanoma
[9] = system: OVCAR-8 ovarian
[10] = system: MDA-MB-435
[11] = system: CAKI-1 renal
[12] = system: K-562 leukemia
[13] = system: T-47D breast
[14] = system: SNB-75 CNS
[15] = system: BT-549 breast
[16] = system: MCF7 breast
[17] = system: M14 melanoma
[18] = system: HCT-116 colon
[19] = system: SK-MEL-5 melanoma
[20] = system: IGROV1 ovarian
[21] = system: ACHN renal
[22] = system: SNB-19 CNS
[23] = system: NCI-H522 lung
[24] = system: NCI-H23 lung
[25] = system: A549 NSCLC
[26] = system: HS 578T breast
[27] = system: HCT-15 colon
[28] = system: MDA-N
[29] = system: MDA-MB-231 breast
[30] = system: RPMI-8226 leukemia
[31] = system: CCRF-CEM leukemia
[32] = system: SF-268 CNS
[33] = system: UACC-257 melanoma
[34] = system: NCI-H460 lung
[35] = system: 786-0 renal
[36] = system: HT29 colon
[37] = system: OVCAR-3 ovarian
[38] = system: COLO 205 colon
[39] = system: SK-MEL-28 melanoma
[40] = system: SK-OV-3 ovarian
[41] = system: SK-MEL-2 melanoma
[42] = system: KM12 colon
[43] = system: A498 renal
[44] = system: PC-3 prostate
[45] = system: HOP-92 NSCLC
[46] = system: SR leukemia
[47] = system: U251 CNS
[48] = system: HOP-62 NSCLC
[49] = system: SF-295 CNS
[50] = system: UO-31 renal
[51] = system: OVCAR-5 ovarian
[52] = system: MOLT-4 leukemia
[53] = system: OVCAR-4 ovarian
[54] = system: NCI-H226 lung
[55] = system: RXF 393 renal
[56] = system: MALME-3M melanoma

Compound: CN(C(=O)Nc1ccc(Cl)c(Cl)c1)C1CCCC[C@@H]1N1CCCC1 (stereo partly specified)
- TGI [1]: > 100 µM
- TGI [2]: > 100 µM
- TGI [3]: > 100 µM
- TGI [4]: > 100 µM
- TGI [5]: 40.2 µM
- TGI [6]: > 100 µM
- TGI [7]: > 100 µM
- TGI [8]: > 100 µM
- TGI [9]: > 100 µM
- TGI [10]: > 100 µM
- TGI [11]: > 100 µM
- TGI [12]: > 100 µM
- TGI [13]: > 100 µM
- TGI [14]: > 100 µM
- TGI [15]: > 100 µM
- TGI [16]: 87.4 µM
- TGI [17]: 36.1 µM
- TGI [18]: > 100 µM
- TGI [19]: 30.6 µM
- TGI [20]: > 100 µM
- TGI [21]: > 100 µM
- TGI [22]: > 100 µM
- TGI [23]: > 100 µM
- TGI [24]: > 100 µM
- TGI [25]: > 100 µM
- TGI [26]: 73.9 µM
- TGI [27]: > 100 µM
- TGI [28]: > 100 µM
- TGI [29]: > 100 µM
- TGI [30]: 64.1 µM
- TGI [31]: > 100 µM
- TGI [32]: 94.7 µM
- TGI [33]: 39.4 µM
- TGI [34]: > 100 µM
- TGI [35]: > 100 µM
- TGI [36]: > 100 µM
- TGI [37]: > 100 µM
- TGI [38]: 35.7 µM
- TGI [39]: 47.6 µM
- TGI [40]: > 100 µM
- TGI [41]: > 100 µM
- TGI [42]: > 100 µM
- TGI [43]: 55.9 µM
- TGI [44]: > 100 µM
- TGI [45]: > 100 µM
- TGI [46]: > 100 µM
- TGI [47]: > 100 µM
- TGI [48]: > 100 µM
- TGI [49]: > 100 µM
- TGI [50]: 84.2 µM
- TGI [51]: > 100 µM
- TGI [52]: 96.8 µM
- TGI [53]: > 100 µM
- TGI [54]: 39.5 µM
- TGI [55]: > 100 µM
- TGI [56]: 37.8 µM

— PubChem BioAssay (NCI)
